Results: PubChem BioAssay AID212 (DTP/NCI, 2004)
Several values for one entry are separate records, joined by “and”; a condition that tells them apart may be missing. Equal values may be shown once. Inconclusive results are not listed.

System: BDF1 mice, colon carcinoma 38 sc, T/C %
Assay: NCI In Vivo Anticancer Drug Screen. Data for tumor model Colon Carcinoma 38 (subcutaneous) in B6D2F1 (BDF1) mice
Method: The antitumor activity of compounds was measured in mice bearing transplantable tumors. Survival or tumor size were measured and the results are expressed as the measurement made in the treated group (T) divided by the measurement made in the vehicle treated control group (C). The tumor model used in this assay is Colon Carcinoma 38 (subcutaneous) in B6D2F1 (BDF1) mice

CC1CN=C(c2ccc(NC(=O)c3ccc(C(=O)Nc4ccc(C5=NCC(C)N5)cc4)cc3)cc2)N1 (centres undefined)
T/C (endpoint: median tumor weight (est.), dose: 12.5 mg/kg/injection, schedule: Q07DX003 (ip), vehicle: Klucel (hydroxypropylcellulose) (HPC), higher = larger tumour): 78 % of control and 79 % of control
T/C (endpoint: median tumor weight (est.), dose: 25.0 mg/kg/injection, schedule: Q07DX003 (ip), vehicle: Klucel (hydroxypropylcellulose) (HPC), higher = larger tumour): 115 % of control and 102 % of control
T/C (endpoint: median tumor weight (est.), dose: 200.0 mg/kg/injection, schedule: Q07DX003 (ip), vehicle: Klucel (hydroxypropylcellulose) (HPC), higher = larger tumour): 86 % of control
T/C (endpoint: median tumor weight (est.), dose: 400.0 mg/kg/injection, schedule: Q07DX003 (ip), vehicle: Klucel (hydroxypropylcellulose) (HPC), higher = larger tumour): 63 % of control

Nc1nc(N)c2cc(S(=O)(=O)c3ccccc3)ccc2n1
T/C (endpoint: median survival time, dose: 57.0 mg/kg/injection, schedule: Q06HX014 (ip), vehicle: saline with Tween-80, higher = longer survival): 166 % of control
T/C (endpoint: median survival time, dose: 86.0 mg/kg/injection, schedule: Q06HX014 (ip), vehicle: saline with Tween-80, higher = longer survival): 205 % of control
T/C (endpoint: median survival time, dose: 520.0 mg/kg/injection, schedule: Q07DX002 (ip), vehicle: saline with Tween-80, higher = longer survival): 118 % of control
T/C (endpoint: median tumor weight (est.), dose: 100.0 mg/kg/injection, schedule: Q07DX002 (ip), vehicle: saline with Tween-80, higher = larger tumour): 106 % of control
T/C (endpoint: median tumor weight (est.), dose: 200.0 mg/kg/injection, schedule: Q07DX002 (ip), vehicle: saline with Tween-80, higher = larger tumour): 190 % of control
T/C (endpoint: median tumor weight (est.), dose: 400.0 mg/kg/injection, schedule: Q07DX002 (ip), vehicle: saline with Tween-80, higher = larger tumour): 169 % of control
T/C (endpoint: median tumor weight (est.), dose: 800.0 mg/kg/injection, schedule: Q07DX002 (ip), vehicle: saline with Tween-80, higher = larger tumour): 21 % of control

COc1cc2c3c(cccc3c1)C(=O)N(CCN(C)C)C2=O
T/C (endpoint: median tumor weight (est.), dose: 10.0 mg/kg/injection, schedule: Q07DX002 (ip), vehicle: saline with Tween-80, higher = larger tumour): 86 % of control and 103 % of control
T/C (endpoint: median tumor weight (est.), dose: 40.0 mg/kg/injection, schedule: Q07DX002 (ip), vehicle: saline with Tween-80, higher = larger tumour): 73 % of control and 92 % of control
T/C (endpoint: median tumor weight (est.), dose: 80.0 mg/kg/injection, schedule: Q07DX002 (ip), vehicle: saline with Tween-80, higher = larger tumour): 72 % of control
T/C (endpoint: median tumor weight (est.), dose: 160.0 mg/kg/injection, schedule: Q07DX002 (ip), vehicle: saline with Tween-80, higher = larger tumour): 73 % of control

CC(C)[NH-].CC(C)[NH-].[Cl][Pt+2][Cl]
T/C (endpoint: median tumor weight (est.), dose: 3.12 mg/kg/injection, schedule: Q07DX002 (ip), vehicle: dextrose, higher = larger tumour): 15 % of control
T/C (endpoint: median tumor weight (est.), dose: 3.13 mg/kg/injection, schedule: Q07DX002 (ip), vehicle: dextrose, higher = larger tumour): 122 % of control
T/C (endpoint: median tumor weight (est.), dose: 6.25 mg/kg/injection, schedule: Q07DX002 (ip), vehicle: dextrose, higher = larger tumour): 77 % of control
T/C (endpoint: median tumor weight (est.), dose: 6.25 mg/kg/injection, schedule: Q07DX002 (ip), vehicle: other, higher = larger tumour): 104 % of control
T/C (endpoint: median tumor weight (est.), dose: 12.5 mg/kg/injection, schedule: Q07DX002 (ip), vehicle: dextrose, higher = larger tumour): 71 % of control
T/C (endpoint: median tumor weight (est.), dose: 12.5 mg/kg/injection, schedule: Q07DX002 (ip), vehicle: other, higher = larger tumour): 53 % of control
T/C (endpoint: median tumor weight (est.), dose: 25.0 mg/kg/injection, schedule: Q07DX002 (ip), vehicle: dextrose, higher = larger tumour): 79 % of control and 88 % of control
T/C (endpoint: median tumor weight (est.), dose: 25.0 mg/kg/injection, schedule: Q07DX002 (ip), vehicle: other, higher = larger tumour): 84 % of control
T/C (endpoint: median tumor weight (est.), dose: 50.0 mg/kg/injection, schedule: Q07DX002 (ip), vehicle: dextrose, higher = larger tumour): 58 % of control and 71 % of control
T/C (endpoint: median tumor weight (est.), dose: 50.0 mg/kg/injection, schedule: Q07DX002 (ip), vehicle: other, higher = larger tumour): 122 % of control
T/C (endpoint: median tumor weight (est.), dose: 100.0 mg/kg/injection, schedule: Q07DX002 (ip), vehicle: other, higher = larger tumour): 52 % of control

N=C(N)SCc1c2ccccc2c(CSC(=N)N)c2ccccc12
T/C (endpoint: median tumor weight (est.), dose: 6.25 mg/kg/injection, schedule: Q07DX002 (ip), vehicle: suspension in saline, higher = larger tumour): 63 % of control
T/C (endpoint: median tumor weight (est.), dose: 12.5 mg/kg/injection, schedule: Q07DX002 (ip), vehicle: saline, higher = larger tumour): 93 % of control and 100 % of control
T/C (endpoint: median tumor weight (est.), dose: 12.5 mg/kg/injection, schedule: Q07DX002 (ip), vehicle: suspension in saline, higher = larger tumour): 92 % of control
T/C (endpoint: median tumor weight (est.), dose: 25.0 mg/kg/injection, schedule: Q07DX002 (ip), vehicle: suspension in saline, higher = larger tumour): 83 % of control
T/C (endpoint: median tumor weight (est.), dose: 50.0 mg/kg/injection, schedule: Q07DX002 (ip), vehicle: saline, higher = larger tumour): 71 % of control and 89 % of control
T/C (endpoint: median tumor weight (est.), dose: 50.0 mg/kg/injection, schedule: Q07DX002 (ip), vehicle: suspension in saline, higher = larger tumour): 64 % of control
T/C (endpoint: median tumor weight (est.), dose: 100.0 mg/kg/injection, schedule: Q07DX002 (ip), vehicle: suspension in saline, higher = larger tumour): 115 % of control
T/C (endpoint: median tumor weight (est.), dose: 200.0 mg/kg/injection, schedule: Q07DX002 (ip), vehicle: suspension in saline, higher = larger tumour): 97 % of control

NC1(C(=O)O)CCCC1
T/C (endpoint: median tumor weight (est.), dose: 12.5 mg/kg/injection, schedule: Q07DX003 (ip), vehicle: saline, higher = larger tumour): 72 % of control
T/C (endpoint: median tumor weight (est.), dose: 25.0 mg/kg/injection, schedule: Q07DX003 (ip), vehicle: saline, higher = larger tumour): 78 % of control
T/C (endpoint: median tumor weight (est.), dose: 50.0 mg/kg/injection, schedule: Q07DX003 (ip), vehicle: saline, higher = larger tumour): 92 % of control
T/C (endpoint: median tumor weight (est.), dose: 100.0 mg/kg/injection, schedule: Q07DX003 (ip), vehicle: saline, higher = larger tumour): 66 % of control
T/C (endpoint: median tumor weight (est.), dose: 200.0 mg/kg/injection, schedule: Q07DX003 (ip), vehicle: saline, higher = larger tumour): 16 % of control
